Experimental findings from ChEMBL document CHEMBL4028849 (J Med Chem, 2017) are described below.

What is called logP is a log measure of how a compound divides between an organic and an aqueous phase. High values mean higher lipophilicity, low ones lower lipophilicity.

Data set [1] in a line: Terminal half life in Sprague-Dawley rat at 1 mg/kg, iv. The data set is classed as ADME, organism-based. Particulars: in vivo, read-out: beta t1/2 (converted).
Data set [2] is described as follows: n-Octanol-water partition co-efficient, log P of the compound at 1 mg/ml by HPLC analysis. The data set is classed as physicochemical.

In the case of `COc1ccc2c(c1)NC(=O)CN2c1nc(C)nc2ccccc12`, the half-life in data set [1] was 2.17 days.

`COc1ccc2c(c1)NC(=O)CN2c1nc(N2CCC(F)(F)C2)nc2ccccc12` displayed a logP in data set [2] of 2.48.

Take `CCCCNc1nc(N2CC(=O)Nc3cc(OC)ccc32)c2ccccc2n1`: in data set [2], the logP turned out to be 3.91.

For `COc1ccc2c(c1)NC(=O)CN2c1nc(COC(C)=O)nc2ccccc12`, the lipophilicity (logP) in data set [2] was determined as 2.7.

`CNc1nc(N2CC(=O)Nc3cc(OC)ccc32)c2ccccc2n1` displayed a logP in data set [2] of 2.77.

In the case of `COc1ccc2c(c1)NC(=O)CN2c1nc(CO)nc2ccccc12`, in data set [2], the logP is listed as 2.14.

The molecule `COc1ccc2c(c1)NC(=O)CN2c1nc(NC2CC2)nc2ccccc12` showed a logP in data set [2] of 2.26.

`COc1ccc2c(c1)NC(=O)CN2c1nc(Cl)nc2ccccc12` registered a log partition coefficient (logP) in data set [2] of 2.94.

As for `COc1ccc2c(c1)NC(=O)CN2c1nc(N2CC(F)(F)C2)nc2ccccc12`, the lipophilicity (logP) in data set [2] turned out to be 2.14.

For the molecule `CCNc1nc(N2CC(=O)Nc3cc(OC)ccc32)c2ccccc2n1`, the logP in data set [2] was 2.56.

`COc1ccc2c(c1)NC(=O)CN2c1nc(NCCCO)nc2ccccc12`: in data set [2], the lipophilicity (logP) is given as 2.6.

Turning to `COc1ccc2c(c1)NC(=O)CN2c1nc(NC2CCCC2)nc2ccccc12`, the lipophilicity (logP) in data set [2] stood at 2.33.
